For two compounds, IC50 results are on record in US20230145835A1, “Modulators of Alpha-4-beta-7 Integrin and MAdCAM” (48HD Biopharma Inc., priority 2021, published 2023).

SMILES strings stand for the structures. pIC50: −log10 of the molar value. Numbered stars: 1 amine (or outer) side, 2 acyl side, 3 side chain; on linkers, the order of the positions; unused ones are H or OH. Bridge positions count the residues as written; N and C are the ends. Peptide text beside a SMILES is read from it. X3 = O=C(/C=N/OCCCCCCOc1cc(C[*:2])cc(C[*:3])c1)[*:1]; X2 = O=C(C=NOCc1cc(C[*:2])cc(C[*:3])c1)[*:1]

Assay [1] deals with T1, rh-integrin α4β7/LPAM-1 (Homo sapiens, UniProt P13612+P26010).
T1 sequence (P13612 34-977 limits assumed): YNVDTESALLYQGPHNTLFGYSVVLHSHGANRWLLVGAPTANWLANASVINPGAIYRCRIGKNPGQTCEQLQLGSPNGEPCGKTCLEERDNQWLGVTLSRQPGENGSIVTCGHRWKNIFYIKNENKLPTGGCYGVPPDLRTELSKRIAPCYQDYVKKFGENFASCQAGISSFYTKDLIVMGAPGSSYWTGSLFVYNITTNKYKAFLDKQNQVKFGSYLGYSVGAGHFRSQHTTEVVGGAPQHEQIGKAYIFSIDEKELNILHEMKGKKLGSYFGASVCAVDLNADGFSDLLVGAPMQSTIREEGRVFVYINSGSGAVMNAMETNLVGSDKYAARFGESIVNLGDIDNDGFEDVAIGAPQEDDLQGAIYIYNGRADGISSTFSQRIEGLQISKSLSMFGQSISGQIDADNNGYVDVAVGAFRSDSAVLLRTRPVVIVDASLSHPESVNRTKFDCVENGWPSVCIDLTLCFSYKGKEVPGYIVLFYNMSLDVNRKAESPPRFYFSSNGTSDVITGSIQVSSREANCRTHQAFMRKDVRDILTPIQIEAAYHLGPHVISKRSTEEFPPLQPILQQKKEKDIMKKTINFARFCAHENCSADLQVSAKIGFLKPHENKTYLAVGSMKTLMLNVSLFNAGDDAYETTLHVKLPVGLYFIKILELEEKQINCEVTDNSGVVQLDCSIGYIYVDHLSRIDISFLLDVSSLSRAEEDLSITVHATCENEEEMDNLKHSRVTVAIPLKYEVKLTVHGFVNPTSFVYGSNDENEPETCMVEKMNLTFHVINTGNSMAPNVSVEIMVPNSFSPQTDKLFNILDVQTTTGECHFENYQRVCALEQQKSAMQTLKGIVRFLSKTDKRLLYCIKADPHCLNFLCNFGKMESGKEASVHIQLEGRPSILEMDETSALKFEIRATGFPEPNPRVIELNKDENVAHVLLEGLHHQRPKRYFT
T1 sequence (P26010 20-723 limits assumed): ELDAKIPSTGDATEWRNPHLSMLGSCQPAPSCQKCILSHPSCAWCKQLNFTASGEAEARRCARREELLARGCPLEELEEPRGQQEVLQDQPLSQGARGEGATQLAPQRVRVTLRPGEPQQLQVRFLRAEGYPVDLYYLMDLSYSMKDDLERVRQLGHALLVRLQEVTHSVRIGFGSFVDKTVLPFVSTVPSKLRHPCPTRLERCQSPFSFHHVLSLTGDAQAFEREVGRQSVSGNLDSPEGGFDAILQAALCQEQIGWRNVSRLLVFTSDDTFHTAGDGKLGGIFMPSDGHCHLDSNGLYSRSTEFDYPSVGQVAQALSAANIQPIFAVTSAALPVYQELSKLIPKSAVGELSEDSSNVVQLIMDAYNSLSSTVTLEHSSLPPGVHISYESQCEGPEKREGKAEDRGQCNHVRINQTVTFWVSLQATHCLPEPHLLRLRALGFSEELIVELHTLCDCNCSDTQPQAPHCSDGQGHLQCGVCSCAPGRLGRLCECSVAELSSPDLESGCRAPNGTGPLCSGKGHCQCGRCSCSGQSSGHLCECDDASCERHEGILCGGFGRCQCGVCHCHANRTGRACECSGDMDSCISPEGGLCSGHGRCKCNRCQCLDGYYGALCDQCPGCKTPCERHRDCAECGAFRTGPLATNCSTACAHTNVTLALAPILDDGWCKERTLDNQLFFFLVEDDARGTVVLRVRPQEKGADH
The assay is described as follows: Competition Binding Assay (competition ELISA, Example 1). On the technique in general: An ELISA detects its analyte on a solid surface through an enzyme-linked reagent.

Assay [2] concerns the target T1, rh-integrin α4β7/LPAM-1. The assay is described as follows: α4β7-MadCAM Competition ELISA (Example 4). In kind it is binding. To be noted: IC50, competition ELISA, 4 μg/mL α4β7 coated, MAdCAM and peptide mixture, 28° C. As for the experimental part: After washing with wash buffer, 200 μL assay buffer was added to each well and incubated for one hour at 28° C. After another wash with wash buffer, 100 μL of a MAdCAM and peptide mixture in assay buffer was added to each well and incubated for one hour at 28° C., followed by washing with wash buffer.

One may read the pIC50 as −log10 of the IC50, conventionally taken in molar units. On to `CC(C)C[C@@H]1NC(=O)[C@H]([C@@H](C)O)NC(=O)[C@H](CC(=O)O)NC(=O)[C@H](CO)NC(=O)[C@H](CCCNC(=N)N)NC(=O)[C@@H]2CSCc3cc(cc(c3)OCCCCCCO/N=C/C(=O)N[C@@H](C)C(=O)N2)CSC[C@@H](C(N)=O)NC1=O` [SEQ ID NO: 25] (ACRSDTLC-NH2; linker N-2-8 via X3; C-terminus assumed), for which, on rh-integrin α4β7/LPAM-1 [1], the pIC50 is 4.10.

Regarding `CC(C)C[C@@H]1NC(=O)[C@H]([C@@H](C)O)NC(=O)[C@H](CC(=O)O)NC(=O)[C@H](CO)NC(=O)[C@H](CCCNC(=N)N)NC(=O)[C@@H]2CSCc3cc(cc(c3)CSC[C@@H](C(=O)O)NC1=O)CON=CC(=O)N[C@@H](C)C(=O)N2` [SEQ ID NO: 70] (ACRSDTLC-OH; linker N-2-8 via X2), the pIC50 on rh-integrin α4β7/LPAM-1 [2] and on rh-integrin α4β7/LPAM-1 [1] was 3.95 throughout.
